Assay results published in US10525139B2, “Folate-conjugated molecules for delivery of toxic small molecule inhibitors to cancer cells and methods of use” (priority 2014, dated 2020).
“Also recorded” adds a separate entry of the source.

Experiments:
[1] = tested on: panel of cell lines; assay: Apoptosis luminescence assay (Caspase) in a panel of cell lines; assay type: cell-based; details: 384-well plates, 72 hours
Procedure: Cells were grown in 384-well plates and treated for 72 hours with the indicated dose of Folate-Thap. Apoptosis was measured using a luminescence assay developed by Promega.

[2] = tested on: murine NOTCH1 L1601P ΔPEST expressing leukemia lymphoblasts; assay: Ex vivo treatment of murine NOTCH1 L1601P ΔPEST leukemia lymphoblasts; assay type: cell-based, mouse
Procedure: Viability data is represented as percentage relative to vehicle treatment and errors bars denote mean±SD of 3 replicates. Statistical significance of treated vs. vehicle (DMSO) samples (***P≤0.01; ***P≤0.001) was determined by one-way ANOVA with Bonferroni's correction for multiple comparison testing. […] The immunoblot contains cell lysates stained with anti-ICN1 antibody (Val1744) after treatment with the 10 μM of JQ-FT for 24 hours in vitro. GAPDH was used as a loading control ICN1 loss was quantified and bar graph (panel e) corresponds to the results of the quantification of three independent experiments. Statistical significance of treated vs. vehicle (DMSO) samples (*P≤0.05) was determined by Student's t-test. Expression of indicated NOTCH1 target genes HesI (panel d) and Dtx1 (panel e) in murine NOTCH1 L1601P ΔPEST expressing leukemia lymphoblasts treated with 10 μM JQ-FT for 24 hours was determined by qRT-PCR. Error bars indicate the mean±SD of 3 replicates. Data were analyzed using the ΔΔCT method and plotted as a percentage relative to the control gene Gapdh. Statistical significance for treated vs. vehicle (DMSO) (*P≤0.05) was determined by Student's t-test. […] The spleen and the liver of all mice were examined; representative results for one control animal and one JQ-FT-treated animal are shown. Formalin-fixed, paraffin-embedded tissue sections were stained using the hematoxylin and eosin stain (H & E) method. […] Anti-leukemic activity of JQ-FT was assessed by measuring spleen weight upon 5 days of JQ-FT treatment (60 mg/kg I.P) or vehicle (65% D5W+30% PEG-400+5% Tween-80only). […] Statistical significance for treated vs. vehicle (*P≤0.05) was determined by non-parametric t-test (Mann-Whitney). […] Statistical significance for treated vs. vehicle (*P≤0.05) was determined by non-parametric t-test (Mann-Whitney). […] ICN1 loss was quantified and bar graph (j) corresponds to the results of the quantification. Statistical significance for treated vs. vehicle (*P≤0.05) was determined by Student's t-test. […]

[3] = Maximal tolerated dose in mice; assay type: in vivo
Procedure: Though the JQ-FT conjugate has not, as yet, been optimized for pharmacologic properties, we are eager to explore the utility of the compound as an in vivo chemical probe, while assessing putative tolerability of folate-conjugated thapsigargins. We first established the maximal tolerated dose (MTD) of JQ-FT as 60 mg/kg/day in mice, as administered by daily intraperitoneal injection. […] We therefore initiated treatment studies of JQ-FT (60 mg/kg IP daily) in mice with established T-ALL.

[4] = tested on: NOTCH1 L1601P ΔPEST T-ALL; assay: Syngeneic T-ALL mouse model carrying NOTCH1 L1601P ΔPEST; assay type: in vivo
Procedure: Viability data is represented as percentage relative to vehicle treatment and errors bars denote mean±SD of 3 replicates. Statistical significance of treated vs. vehicle (DMSO) samples (***P≤0.01; ***P≤0.001) was determined by one-way ANOVA with Bonferroni's correction for multiple comparison testing. […] The immunoblot contains cell lysates stained with anti-ICN1 antibody (Val1744) after treatment with the 10 μM of JQ-FT for 24 hours in vitro. GAPDH was used as a loading control ICN1 loss was quantified and bar graph (panel e) corresponds to the results of the quantification of three independent experiments. Statistical significance of treated vs. vehicle (DMSO) samples (*P≤0.05) was determined by Student's t-test. Expression of indicated NOTCH1 target genes HesI (panel d) and Dtx1 (panel e) in murine NOTCH1 L1601P ΔPEST expressing leukemia lymphoblasts treated with 10 μM JQ-FT for 24 hours was determined by qRT-PCR. Error bars indicate the mean±SD of 3 replicates. Data were analyzed using the ΔΔCT method and plotted as a percentage relative to the control gene Gapdh. Statistical significance for treated vs. vehicle (DMSO) (*P≤0.05) was determined by Student's t-test. […] The spleen and the liver of all mice were examined; representative results for one control animal and one JQ-FT-treated animal are shown. Formalin-fixed, paraffin-embedded tissue sections were stained using the hematoxylin and eosin stain (H & E) method. […] Anti-leukemic activity of JQ-FT was assessed by measuring spleen weight upon 5 days of JQ-FT treatment (60 mg/kg I.P) or vehicle (65% D5W+30% PEG-400+5% Tween-80only). […] Statistical significance for treated vs. vehicle (*P≤0.05) was determined by non-parametric t-test (Mann-Whitney). […] Error bars indicate mean±SD of 4 replicates (of the 4 animals of each group). Statistical significance for treated vs. vehicle (*P≤0.05) was determined by non-parametric t-test (Mann-Whitney). […] The immunoblot contains splenic cell lysates stained with anti-ICN1 antibody (Val1744) after treatment with the 60 mg/Kg of JQ-FT for 5 days. GAPDH was used as a loading control. ICN1 loss was quantified and bar graph (j) corresponds to the results of the quantification. Statistical significance for treated vs. vehicle (*P≤0.05) was determined by Student's t-test.
In vitro studies provide valuable mechanistic insights but may not recapitulate tumor micro-environment and metabolic conditions in vivo. Indeed, a significant limitation of research on folate-conjugate drugs is the inconsistency between free folate concentrations (and other middle metabolites) in culture conditions in vitro versus in vivo. High levels of free folic acid in the sera may block the binding and uptake of JQ-FT in FR2-positive T-ALL compromising the anti-NOTCH1 leukemia effect observed in vitro. To explore the therapeutic efficacy of JQ-FT in vivo, we studied effects on a syngeneic T-ALL mouse model carrying a NOTCH1 L1601P ΔPEST, a common mutation observed in the human disease. First, leukemia cells obtained from this model were treated with JQ-FT for 24 hours in vitro.
Though the JQ-FT conjugate has not, as yet, been optimized for pharmacologic properties, we are eager to explore the utility of the compound as an in vivo chemical probe, while assessing putative tolerability of folate-conjugated thapsigargins. We first established the maximal tolerated dose (MTD) of JQ-FT as 60 mg/kg/day in mice, as administered by daily intraperitoneal injection. […]

[5] = tested on: PDX T-ALL cells; assay: JQ-FT treatment of patient-derived xenograft (PDX) T-ALL cells in vitro; assay type: cell-based, human
Procedure: Errors bars denote mean±SD of 4 replicates. […] The blot was stained with an antibody against the C-terminus of NOTCH1 that recognizes both the furin-processed NOTCH1 transmembrane subunit (TM) and the unprocessed NOTCH1 precursor (FL). The immunoblot was also stained with anti-ICN1 antibody. GAPDH was used as a loading control. […] Error bars indicate the mean±SD of 4 replicates. Data were analyzed using the ΔΔCT method and plotted as a percentage relative to the control gene RPL13A. Statistical significance among groups for treated vs. vehicle (DMSO) samples (***P≤0.0001) was determined by one-way ANOVA with Bonferroni's correction for multiple comparison testing. […] The blot was stained with an antibody against the C-terminus of NOTCH1 (N1) that recognizes both the furin-processed NOTCH1 transmembrane subunit (TM). GAPDH was used as a loading control. […] Cells were probed with an anti-NOTCH1 antibody (green) and nuclei were counterstained with DAPI. […] Error bars indicate the mean±SD of 4 replicates. Data were analyzed using the ΔΔCT method and plotted as a percentage relative to the control gene RPL13A. Statistical significance (***P≤0.001. ****P≤0.0001) for treated vs. vehicle (DMSO) was determined by one-way ANOVA with Bonferroni's correction for multiple comparison testing.
To assess the translational significance of these findings, we studied patient-derived xenografts (PDX) from T-ALL patients at the Dana-Farber Cancer Institute.

[6] = tested on: T-ALL cell lines; assay: T-ALL cell viability / growth (ATP content, Cell-Titer Glo); assay type: cell-based, human
[7] = NOTCH1-mutated PDX cells, 24 hours

C/C=C(/C)C(=O)O[C@H]1C(C)=C2C([C@@H]1OC(=O)CCCCCCC)[C@@](C)(OC(C)=O)C[C@H](OC(=O)CC[C@H](NC(=O)c1ccc(NCc3cnc4nc(N)[nH]c(=O)c4n3)cc1)C(=O)O)[C@@]1(O)[C@H]2OC(=O)[C@@]1(C)O (stereo partly shown) [JQ-FT]
apoptosis as measured by Caspase [1]: apoptotic effect | ICN1 expression in murine leukemia cells ([2]; 10 μM JQ-FT, 24 hours): diminished | transcription of NOTCH1 targets Hes1 and Dtx1 ([2]; 10 μM JQ-FT, 24 hours): diminished | proliferation of murine leukemia cells ([2]; ex vivo treatment with JQ-FT): diminished the proliferation | MTD relative to MTD of unconjugated thapsigargin [3]: 150 fold | MTD ([3]; mouse, in vivo, ip, daily intraperitoneal injection): 60 mg/kg/day | bone marrow infiltration by T-ALL (GFP+ leukemia cells) ([4]; 60 mg/kg IP daily, five days): markedly inhibited | leukemic infiltration in spleen and liver (histology) ([4]; 60 mg/kg IP daily, five days): decrease of leukemic infiltration in spleen and liver; also recorded: Growth suppression of lymphoblasts | spleen weight ([4]; 60 mg/kg IP daily, five days): reduction in spleen weight | tumor growth ([4]; 60 mg/kg IP daily, five days): evident decrease in tumor growth | ICN1 expression in T-ALL cells from treated animals ([4]; 60 mg/kg, 5 days, splenic cell lysates, vs vehicle): reduced ICN1 expression | ICN1 in NOTCH1-mutated PDX cells [5, 7]: depletion of detectable ICN1 | transmembrane NOTCH1 in NOTCH1-mutated PDX cells [5, 7]: loss of transmembrane NOTCH1 | expression of NOTCH1 target genes DTX and MYC in NOTCH1 mutant PDX samples ([5]; NOTCH1 mutant samples, 24 hours): decreased | NOTCH1 processing in WT NOTCH1 PDX cells ([5]; PDX T-ALL cells possessing WT NOTCH1): no effect was observed | NOTCH1 target gene transcription in WT PDX samples ([5]; WT PDX samples, 24 hours): no transcriptional changes were observed | cell cycle ([6]; T-ALL cell lines, 10 μM): G1 cell cycle arrest | induction of apoptosis in T-ALL cell lines ([6]; T-ALL cell lines, 10 μM): rapid induction of apoptosis | effect on cell viability in FR-overexpressing cell lines ([6]; cell lines overexpressing FR1 or FR2): greater effect on cell viability
